In patent publication US12043599B2, “Herbicidal compounds” (SYNGENTA PARTICIPATIONS AG, priority 2018, dated 2024):

What was measured:
Format in all cases: in vivo
Settings in all cases: 250 g/h, evaluated after 13 days
[1] = tested on: Avena fatua (AVEFA); assay: Pre-emergence herbicidal glasshouse test, percentage damage
Outline: (§1)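 Compounds applied at 250 g/h, formulated in 50:50 acetone/water plus 0.5% Tween 20, onto potted plants one day (pre-emergence) or 8 days (post-emergence) after sowing. Scoring of damage at day 13 used a five-point scale.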

[2] = tested on: Lolium perenne (LOLPE); assay: as above
Outline: as §1

[3] = tested on: Setaria faberi (SETFA); assay: as above
Outline: as §1

[4] = tested on: Alopecurus myosuroides (ALOMY); assay: as above
Outline: as §1

[5] = tested on: Echinochloa crus-galli (ECHCG); assay: as above
Outline: as §1

[6] = tested on: Setaria faberi (SETFA); assay: Post-emergence herbicidal glasshouse test, percentage damage
Outline: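 Wheat, barley and Setaria faberi were sprayed post-emergence after 8 days' growth (24/16 °C, 14 h light, 65% humidity) with compound in acetone/water (50:50) containing 0.5% Tween 20, at the indicated rates. On wheat, compounds were also applied with cloquintocet-mexyl at 50 g/ha. Damage was scored after 13 days on a five-point scale (5=80-100% to 1=0-19%).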

[7] = tested on: Avena fatua (AVEFA); assay: as above
Outline: as §1

[8] = tested on: Lolium perenne (LOLPE); assay: as above
Outline: as §1

[9] = tested on: Alopecurus myosuroides (ALOMY); assay: as above
Outline: as §1

[10] = tested on: Echinochloa crus-galli (ECHCG); assay: as above
Outline: as §1

Row | Structure (SMILES) | AVEFA PRE percentage damage (five point scale) [1] | LOLPE PRE percentage damage (five point scale) [2] | SETFA PRE percentage damage (five point scale) [3] | ALOMY PRE percentage damage (five point scale) [4] | ECHCG PRE percentage damage (five point scale) [5] | SETFA POST percentage damage (five point scale) [6] | AVEFA POST percentage damage (five point scale) [7] | LOLPE POST percentage damage (five point scale) [8] | ALOMY POST percentage damage (five point scale) [9] | ECHCG POST percentage damage (five point scale) [10]
1 | CC#Cc1cc(C)c(C2C(=O)CC3(CCN(C(=O)COC)CC3)CC2=O)c(OC)c1 [Compound A75] | 5 (5=80-100%) | 5 (5=80-100%) | 5 (5=80-100%) | 5 (5=80-100%) | 5 (5=80-100%) | 5 (5=80-100%) | 5 (5=80-100%) | 5 (5=80-100%) | 5 (5=80-100%) | 5 (5=80-100%)
2 | CC#Cc1cc(C)c(C2C(=O)CC3(CCN(C(=O)NC(C)(C)C)CC3)CC2=O)c(OC)c1 [Compound A76] | 5 (5=80-100%) | 5 (5=80-100%) | 5 (5=80-100%) | 5 (5=80-100%) | 5 (5=80-100%) | 5 (5=80-100%) | 5 (5=80-100%) | 5 (5=80-100%) | 5 (5=80-100%) | 5 (5=80-100%)
3 | CC#Cc1cc(C)c(C2C(=O)CC3(CCN(C(=O)NC(=O)C(C)(C)C)CC3)CC2=O)c(OC)c1 [Compound A77] | 5 (5=80-100%) | 5 (5=80-100%) | 5 (5=80-100%) | 5 (5=80-100%) | 5 (5=80-100%) | 5 (5=80-100%) | 5 (5=80-100%) | 5 (5=80-100%) | 5 (5=80-100%) | 5 (5=80-100%)
4 | CC#Cc1cc(C)c(C2C(=O)CC3(CCN(C(=O)C4CC4)CC3)CC2=O)c(OC)c1 [Compound A78] | 5 (5=80-100%) | 5 (5=80-100%) | 5 (5=80-100%) | 5 (5=80-100%) | 5 (5=80-100%) | 5 (5=80-100%) | 5 (5=80-100%) | 5 (5=80-100%) | 5 (5=80-100%) | 5 (5=80-100%)
5 | CC#Cc1cc(C)c(C2C(=O)CC3(CCN(C(=O)CC#N)CC3)CC2=O)c(OC)c1 [Compound A80] | 5 (5=80-100%) | 5 (5=80-100%) | 5 (5=80-100%) | 5 (5=80-100%) | 5 (5=80-100%) | 5 (5=80-100%) | 5 (5=80-100%) | 5 (5=80-100%) | 5 (5=80-100%) | 5 (5=80-100%)
6 | CC#Cc1cc(C)c(C2C(=O)CC3(CCN([S+]([O-])C(F)F)CC3)CC2=O)c(C)c1 (stereo not drawn) [Compound A81] | 5 (5=80-100%) | 5 (5=80-100%) | 5 (5=80-100%) | 5 (5=80-100%) | 5 (5=80-100%) | 5 (5=80-100%) | 5 (5=80-100%) | 5 (5=80-100%) | 5 (5=80-100%) | 5 (5=80-100%)
7 | CC#Cc1cc(C)c(C2C(=O)CC3(CCN(S(=O)(=O)C4CC4)CC3)CC2=O)c(C)c1 [Compound A82] | 5 (5=80-100%) | 5 (5=80-100%) | 5 (5=80-100%) | 5 (5=80-100%) | 5 (5=80-100%) | 5 (5=80-100%) | 5 (5=80-100%) | 5 (5=80-100%) | 5 (5=80-100%) | 5 (5=80-100%)
8 | CC#Cc1cc(C)c(C2C(=O)CC3(CCN(S(=O)(=O)C4COC4)CC3)CC2=O)c(C)c1 [Compound A83] | 4 (4=60-79%) | 5 (5=80-100%) | 5 (5=80-100%) | 5 (5=80-100%) | 5 (5=80-100%) | 5 (5=80-100%) | 5 (5=80-100%) | 5 (5=80-100%) | 5 (5=80-100%) | 5 (5=80-100%)
9 | CC#Cc1cc(C)c(C2C(=O)CC3(CCN(C(=O)c4ccccc4F)CC3)CC2=O)c(C)c1 [Compound A84] | 4 (4=60-79%) | 5 (5=80-100%) | 5 (5=80-100%) | 5 (5=80-100%) | 5 (5=80-100%) | 5 (5=80-100%) | 5 (5=80-100%) | 5 (5=80-100%) | 5 (5=80-100%) | 5 (5=80-100%)
